Measurements taken from patent US20180200323A1, “USE OF TETRAPEPTIDE -3 GEKG OR PENTAPEPTIDE -3 GEKGF FOR TREATING DEGENERATIVE JOINT DISEASE” (priority 2017, published 2018).
Entries after “also recorded” stand apart in the source; their conditions may differ.

Tests used:
synovial liquid = assay: Rabbit knee cartilage defect model: biochemical indicators (NO, SOD, MDA) in synovial liquid; type: in vivo, New Zealand white rabbits
From the text: As used in the present invention, all of the methods for measuring SOD, NO and MDA in synovial liquid and collagen and proteoglycan in extracellular matrix of cartilage have been known and conventionally used in the art.
(§1) Fifteen (15) healthy adult New Zealand white rabbits were randomly divided into three (3) groups: a normal control group (Group A), a model control group (Group B) and a test group subject to intra-articular injection of a test peptide (Group C), with five (5) rabbits included in each of the groups. Fasting was conducted within four hours before surgical operations. Ketamine (10 mg/kg) and atropine (0.2 mg/kg) were injected in the muscle of each rabbit. After anesthesia took effect, each rabbit was confined to an operating table. An 8 cm-long longitudinal scission was made in the back of each knee before the skin was lifted. From the back of the knee, the articular capsule and synovial were opened. Then, the knee was bent for 90° to expose the cartilage at a lower end of the femur. Two cylindrical cutouts of 3 mm in diameter and 3 mm in depth were made. Coagulation was removed from each of the cutouts. The joint cavity was washed with a sterile saline solution. Stitches were made for each section. After the surgical operation, injection of penicillin was conducted against infection for a week. After five (5) days, each rabbit was able to eat and stand normally.
(§2) Two (2) weeks after the surgical operation, the rabbits of Group A and Group B were not treated, whereas the rabbits of Group C were subject to intra-articular injection of 250 ppm/kg of tetrapeptide-3 GEKG once for every seven (7) days, and the injection lasted for twelve (12) weeks. Articular injection of 0.5 ml of saline was executed, and then 0.2 ml of synovial liquid was collected. The articular capsule was cut and opened, synovial was removed, and an entire tibial joint was taken. Arthropathy in arthrodial cartilage was observed by bare eyes and also via surgical lens. Slices were taken, dyed by hematoxylin and eosin stain (HE Stain) and toluidine blue, and then observed in an optical microscope.

[1] = tested on: cartilage cells of the growth plate; assay: Cultivated cartilage cells: DNA content, collagen and proteoglycan production; type: cell-based, rabbits; conditions: 250 ppm
Experimental: Firstly, cartilage cells of the growth plate of the same rabbits were taken and continuously cultivated. The cultivated cells were divided into three groups. In Group I, only 250 ppm of tetrapeptide-3 GEKG was added. In Group II, only 100 ng/ml of collagen was added. In Group III, 250 ppm of tetrapeptide-3 GEKG and 100 ng/ml of collagen were added. A negative control group was also used. After new tissues of cartilage grew at a lower portion of a centrifuge tube, the new tissues were transferred to a 24-well plate for continuing cultivation, wherein the culture medium was replaced for every 2 days. During the cultivation, samples were collected after three (3), seven (7) and fourteen (14) days, and then were analyzed.
For the histological and histochemical measurements, samples were collected, and HE dying and immunochemical measurement (S-P method) were executed.
The content of DNA in the cells of cartilage was determined by the method of Hoechst 33258.
Extracellular matrix of cartilage primarily comprises collagen and proteoglycan composed of glycosaminoglycan and core protein, in addition to water. The content of the matrix and its status of the metabolism were quantitatively analyzed by determining a level of the collagen and proteoglycan in the new tissues of cartilage.
The synthesis of the collagen of the cartilage is measured by the hydroxyproline method. Because the content of hydroxyproline in the collagen was substantially constant (about 10% by weight), an amount of hydroxyproline could be used to analyze the amount of the collagen of the cartilage by using a commercial kit including the hydroxyproline reagent. The content of the collagen in the samples was calculated.

[2] = tested on: arthrodial cartilage of the knee joint; assay: Rabbit knee cartilage defect model: observation by bare eyes and histomorphometry; type: in vivo, New Zealand white rabbits
Experimental: as §1, §2

[3] = Group C vs model control group B
[4] = Group C: intra-articular injection of 250 ppm/kg once every 7 days for 12 weeks

tetrapeptide-3 GEKG
MDA level in synovial liquid (change in words) (synovial liquid; [3]): considerably reduced | SOD level in synovial liquid (change in words) (synovial liquid; [3]): considerably increased | MDA level in synovial liquid (synovial liquid; [4]): 13.12 ± 2.28 c/mol · L^−1 | NO level in synovial liquid (synovial liquid; [4]): 20.76 ± 2.88 c/mol · L^−1 | SOD level in synovial liquid (synovial liquid; [4]): 6.60 ± 1.37 c/mol · L^−1 | Hyperosteogeny of the cells of the cartilage ([1]; samples after 3, 7 and 14 days): considerable hyperosteogeny | Content of DNA of the cells of the cartilage (Hoechst 33258) ([1]; vs control group, FIG. 1): statistically different from that of the control group | Production of collagen of extracellular matrix of cartilage (hydroxyproline method) ([1]; vs control group, FIG. 2): considerably increased | Production of proteoglycan of extracellular matrix of cartilage ([1]; vs control group, FIG. 3): considerably increased | Morphosis of the arthrodial cartilage compared with Group B [2, 3]: significant improvement | Histomorphometric observation of repaired tissues ([2]; Group C, HE and toluidine blue stain, optical microscope): the repaired tissues were not substantially different from the normal tissues of the knee joint; also recorded: considerably repaired the damaged tissues of cartilage | Repair of knee joint injuries observed by bare eyes ([2]; Group C, after 12 weeks of intra-articular injection, 250 ppm/kg): the injuries were completely repaired
